Where a name gives a salt, the structure may show the parent alone. Read-outs that look alike come from different tables or passages of the source.
Key:
Format in all cases: biochemical
human thrombin = human thrombin (Homo sapiens, UniProt P00734); assay: Inhibition of the amidase activity of thrombin (Kass)
Human plasma [1] = assay: Human plasma anticoagulation, thrombin time (TT); conditions: concentration required to double the thrombin time, linear extrapolation
In short: (§1)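 Compounds added across a wide concentration range to plasma; PT measured with Thromboplastin-C, APTT after 120 s Actin incubation then 0.02 M CaCl2, TT with bovine thrombin (10 NIH units/mL). Clotting-time doubling concentrations estimated by linear extrapolation.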

Human plasma [2] = assay: Human plasma anticoagulation, activated partial thromboplastin time (APTT); conditions: concentration required to double the APTT, linear extrapolation
In short: as §1

Human plasma [3] = assay: Human plasma anticoagulation, prothrombin time (PT); conditions: concentration required to double the PT, linear extrapolation
In short: as §1

[4] = mean over a range of test compound concentrations, […]

Kass × 10^6 (L/mole) Human Thrombin (human thrombin; [4])	Compound	Human Plasma Anticoagulation 2× Clotting time (ng/mL) TT (Human plasma [1])	Human Plasma Anticoagulation 2× Clotting time (ng/mL) APTT (Human plasma [2])	Human Plasma Anticoagulation 2× Clotting time (ng/mL) PT (Human plasma [3])	Kass × 10^6 (L/mole) Human Thrombin (human thrombin)
10 × 10^6 L/mole	N=C(N)c1ccc(CNC(=O)[C@@H]2C[C@@H]3CCCC[C@@H]3N2C(=O)[C@H]2CCCCN2)cc1 [Example 20, D-hPro-Ohi-p-NHCH2 C6 H4 C(NH)NH2.3HCl]	62 ng/mL	550 ng/mL	600 ng/mL	–
3.6 × 10^6 L/mole	Cl.Cl.N=C(N)c1ccc(CNC(=O)CN(CCc2ccccc2)C(=O)[C@H]2CCCCN2)cc1 [Example 21, D-hPro-N(PhCH2CH2)Gly-p-NHCH2 C6 H4 C(NH)NH2.2HCl]	160 ng/mL	2,000 ng/mL	1,000 ng/mL	–
38. × 10^6 L/mole	Cl.Cl.N=C(N)c1ccc(CNC(=O)C2CC3CCCCC3N2C(=O)C2NCCC3CCCCC32)cc1 [Example 42, D-1-Piq-cis-Ohi-p-NHCH2 C6 H4 C(NH)NH2.2HCl]	20 ng/mL	270 ng/mL	320 ng/mL	–
63 × 10^6 L/mole	Cl.Cl.Cl.N=C(N)NCCCCNC(=O)[C@@H]1CCCN1C(=O)[C@@H]1NCC[C@H]2CCCC[C@H]21 [Example 61, (4aR,8aR)-Perhydoisoquinoline-1(R)-carbonyl-Pro-Agm.3HCl]	45 ng/mL	679 ng/mL	756 ng/mL	–
15 × 10^6 L/mole	Nc1ccc(CNC(=O)[C@@H]2CCCN2C(=O)[C@@H](CC2CCCCC2)NCC(=O)O)c(F)c1 [Example 64, HO2 CCH2 -D-Cha-Pro-4-NHCH2 -3-F-C6 H3 NH2.HCl]	23 ng/mL	900 ng/mL	650 ng/mL	–
5.0 × 10^6 L/mole	CCS(=O)(=O)N[C@H](CC1CCCCC1)C(=O)N1CCC[C@H]1C(=O)NCc1ccc(N)cc1F [Example 82, EtSO2 -D-Cha-Pro-4-NHCH2 -3-F-C6 H3 NH2.HCl]	130 ng/mL	3,800 ng/mL	3,000 ng/mL	–
–	CCS(=O)(=O)N[C@H](CC1CCCCC1)C(=O)N1CCC[C@H]1C(=O)NCc1ccnc(N)c1.Cl [Example 83, EtSO2 -D-Cha-Pro-4-NHCH2 -2-aminopyridine.HCl]	91 ng/mL	1,000 ng/mL	1,300 ng/mL	–
–	CCS(=O)(=O)N[C@H](CC1CCCCC1)C(=O)N1CCC[C@H]1C(=O)NCc1ccc(N)nc1.Cl [Example 84, EtSO2 -D-Cha-Pro-5-NHCH2 -2-aminopyridine.HCl]	110 ng/mL	1,500 ng/mL	1,900 ng/mL	–
–	N=C(N)c1ccc(CNC(=O)[C@@H]2CCCN2C(=O)[C@@H](CC2CCCCC2)NCCCC(=O)O)cc1 [Example 85, HOOCCH2 CH2 CH2 -D-Cha-Pro-p-NHCH2 C6 H4 C(NH)NH2.HCl]	4.9 ng/mL	100 ng/mL	197 ng/mL	–
–	N=C(N)c1ccc(CNC(=O)[C@@H]2CCCN2C(=O)[C@H](NCC(=O)O)C2CCCCC2)cc1 [Example 86, HOOCCH2 -D-Chg-Pro-p-NHCH2 C6 H4 C(NH)NH2.HCl]	4 ng/mL	81 ng/mL	180 ng/mL	–
30 × 10^6 L/mole	N=C(N)c1ccc(CNC(=O)[C@@H]2CCCN2C(=O)[C@@H](CCc2ccccc2)NCC(=O)O)cc1 [Example 87, HOOCCH2 -D-hPhe-Pro-p-NHCH2 C6 H4 C(NH)NH2.HCl]	9 ng/mL	260 ng/mL	310 ng/mL	–
–	N=C(N)c1ccc(CNC(=O)[C@@H]2CCCN2C(=O)[C@@H](CCC2CCCCC2)NCC(=O)O)cc1 [Example 88, HOOCCH2 -D-hCha-Pro-p-NHCH2 C6 H4 C(NH)NH2.HCl]	4 ng/mL	100 ng/mL	200 ng/mL	–
–	Cl.N=C(N)c1ccc(CNC(=O)CN(CCc2ccccc2)C(=O)CNCC(=O)O)cc1 [Example 89, HOOCCH2 -Gly-N-C6 H5 CH2 CH2 Gly-p-NHCH2 C6 H4 C(NH)NH2.HCl]	570 ng/mL	51,000 ng/mL	37,000 ng/mL	–
–	CCC(CC)C(=O)N[C@@H](CCC(=O)O)C(=O)N1CCC[C@H]1C(=O)NCc1ccc(C(=N)N)cc1 [Example 90, (C2 H5)2 CHCO-Glu-Pro-p-NHCH2 C6 H4 C(NH)NH2.HCl]	330 ng/mL	14,500 ng/mL	14,600 ng/mL	–
–	CCC(CC)C(=O)N[C@@H](CCS(C)(=O)=O)C(=O)N1CCC[C@H]1C(=O)NCc1ccc(C(=N)N)cc1 [Example 91, (C2 H5)2 CHCO-Met(O2)-Pro-p-NHCH2 C6 H4 C(NH)NH2.HCl]	63 ng/mL	3,000 ng/mL	3,500 ng/mL	–
–	CS(=O)(=O)CC(=O)N[C@H](CC1CCCCC1)C(=O)N1CCC[C@H]1C(=O)NCc1ccc(C(=N)N)cc1 [Example 92, MeSO2 CH2 CO-D-Cha-Pro-p-NHCH2 C6 H4 C(NH)NH2.HCl]	8.9 ng/mL	210 ng/mL	340 ng/mL	–
970 × 10^6 L/mole	CCS(=O)(=O)N[C@H](CC1CCCCC1)C(=O)N1CCC[C@H]1C(=O)NCc1ccc(C(=N)N)cc1F.Cl [Example 93, EtSO2 -D-Cha-Pro-4-NHCH2 -3-F-benzamidine.HCl]	5.9 ng/mL	35 ng/mL	140 ng/mL	–
–	D-hPro-Pro-p-NHCH2 C6 H4 C(NH)NH2.HCl [Example 17]	26 ng/mL	370 ng/mL	400 ng/mL	–
770 × 10^6 L/mole	EtSO2 -D-Phe-Pro-p-NHCH2 --C6 H4 C(=NH)NH2.HCl [Example 23]	7 ng/mL	86 ng/mL	120 ng/mL	–
–	EtSO2 -D-Phe-Pro-p-NHCH2 CH2 C6 H4 CNH(NH)NH2.HCl [Example 35]	4,500 ng/mL	50,400 ng/mL	78,400 ng/mL	–
–	EtSO2 -Phg-cis-Ohi-p-NHCH2 C6 H4 C(NH)NH2.HCl [Example 44]	4. ng/mL	100 ng/mL	170 ng/mL	630
–	HOOCCH2 -D-Phe-Pro(4-cis-isoamyl)-p-NHCH2 C6 H4 C(NH)NH2.HCl [Example 50]	35 ng/mL	460 ng/mL	420 ng/mL	–
–	HOOCCH2 -D-Phe-Pro-p-NHCH2 C6 H4 C(NH)NH2.HCl [Example 46]	2. ng/mL	67 ng/mL	77 ng/mL	–
13. × 10^6 L/mole	NMI-D-Phe-Pro-Agm.HCl [Example 4]	230 ng/mL	–	–	–

Source: patent US5914319A, “Antithrombotic agents” (Eli Lilly and Company, priority 1995, dated 1999)
